Data from patent US12497408B2, “Tetracyclic compounds and methods for the treatment of Zika virus infection” (priority 2021, dated 2025).
pEC50: −log10 of the molar value.

These compounds were tested on ZIKV (assay: ZIKV reporter virus-based antiviral screening on Huh7 cells). Details: Huh7 cells infected with recombinant luciferase reporter ZIKV (MOI about 0.1), 48 hrs, luciferase signal; read-out: EC50.
Format: cell-based, Zika virus
Text: Protocol for ZIKV reporter virus-based antiviral screening on Huh7 cells:
• Human hepatocyte-derived carcinoma cell line (Huh7) 2. Reagents • ViviRen™ Live Cell Substrate (Promega, Cat #E6492) or Nano Glo assay system (Promega: N1130) • White opaque 96-well TC-treated microplates (Corning, Cat #3916) • 96-well Clear V-Bottom TC-treated Microplate (Corning, Cat #3894) • Complete cell culture media: DMEM (Gibco, Cat #10569) supplemented with 10% FBS (HyClone, Cat #SH30071.03IH25-40)+1% MEM Non-Essential Amino Acids Solution 100×(Gibco, Cat #11140050)+1% Penicillin-Streptomycin (10,000 U/mL) (Gibco, Cat #15140122). • Assay media: DMEM media (Gibco, Cat #31053028) supplemented with 2% FBS, 2% GlutaMAX™ Supplement (Gibco Cat #35050061), 1% Sodium Pyruvate solution (Gibco, Cat #11360070), 1% MEM Non-Essential Amino Acids Solution 100× and 1% Penicillin-Streptomycin (10,000 U/mL). • Trypsin-EDTA solution (Gibco, Cat #25200056) 3. Virus • Recombinant ZIKV strain with Renilla luciferase gene (strain FSS-Rlu) or Nano luciferase gene (Strain PRV-Nano, Dakar-Nano) 4. Instruments • BioTek Cytation 5 or other plate-readers for chemiluminescence detection model. • Eppendorf plate centrifuge • Plate shaker • Eppendorf multichannel pipettes Procedures Day 1: Preparation of Cells • Human hepatocyte-derived carcinoma cell line (Huh7) cells were detached from a T-175 flask by using a Trypsin-EDTA solution. The detached cells were suspended in complete culture media in a sterile 50-ml conical tube. • The 50-ml conical tube was centrifuged at 1200×rpm for 3 min at room temperature. • The cells were resuspended in assay media. The cell numbers were counted, and the cells diluted to a density of 3×10^5 cells/ml. • The cells were plated at 50 μl cells per well in White opaque 96-well plates (assay plates). Gently shake the plates to ensure cells to attach to the plate evenly. • The plated cells were incubated in a humidified incubator (37° C. with 5% CO2). Day 2: Infection • 1) Nine serial (2-fold or 3-fold) concentrated compounds were prepared using 90% DMSO solution and DMSO controls in a clear V-bottom 96-well plate (compound plate). • For example:
• 2) The reporter virus stock was diluted to a concentration of 3×10^4 FFU (FFU: focus-forming unit)/ml using the assay media. 200 μl diluted virus per well was aliquoted into a clear V-bottom 96-well plate (mixing plate). • 3) 1 μl above 400×concentrated compound dilutions was added from the compound plate to each well of the mixing plate. The plates were shaken on a plate shaker for 5 min. • 4) 50 μl compound-virus mixture was added into each well of the assay plates (the MOI is about 0.1). The plates were shaken gently by mixing the virus evenly. • An example of the format for assay plate:
• control. • 5) The plates were centrifuged at 1000 rpm for 15 s. • 6) The plates were incubated at 37° C. with 5% CO2 in a humidified incubator for 48 hrs. Day 4: Read Luciferase Signals • 7) The ViviRen™ Live Cell Substrate was diluted in assay media for 3000× folds. 25 μl of diluted substrates was added into each well of the assay plates. • For Nano-Glo assay system, 50 μl diluted substrates (50×fold diluted from the stock in assay buffer) were added. • 8) The plates were incubated at room temperature for 5 min. • 9) Optimally, cell viability is measured using the Promega Cell-titer Glo kit (only used when ZIKV-Rlu was used for infection). • 10) Luciferase signals were read using the Cytation 5 with gain value of 120-150. Data Analysis • a. The luciferase signals from DMSO-treated groups (un-treated controls) were set as 100%. The relative luciferase signals were obtained by normalizing the luciferase signals from each dilution-treated group to that of the controls. • b.

| SMILES | pEC50 |
| --- | --- |
| CC[C@H](C)[C@H](NC(=O)OC)C(=O)N1C[C@@H](C)C[C@H]1c1nc(Cl)c(-c2cc3c4c(c2)OCc2cc(-c5[nH]c([C@@H]6C[C@H](C)CN6C(=O)[C@@H](NC(=O)OC)[C@@H](C)CC)nc5C(C)C)cc(c2-4)OC3)[nH]1 [Compound 73, methyl ((2S,3S)-1-((2S,4S)-2-(5-(7-(4-chloro-2-((2S,4S)-1-((methoxycarbonyl)-1-isoleucyl)-4-methylpyrrolidin-2-yl)-1H-imidazol-5-yl)-5,10-dihydrochromeno[5,4,3-cde]chromen-2-yl)-4-isopropyl-1H-imidazol-2-yl)-4-methylpyrrolidin-1-yl)-3-methyl-1-oxopentan-2-yl)carbamate] | 8.49 |

Same assay, conditions: Zika virus, Huh-7, 48 h, Huh7 cells infected with recombinant luciferase reporter ZIKV (MOI about 0.1), luciferase signal

| SMILES | pEC50 |
| --- | --- |
| COC[C@H]1C[C@@H](c2nc(Cl)c(-c3cc4c5c(c3)OCc3cc(-c6[nH]c([C@@H]7C[C@H](COC)CN7C(=O)[C@@H](NC(=O)OC)C(C)C)nc6Cl)cc(c3-5)OC4)[nH]2)N(C(=O)[C@@H](NC(=O)OC)C(C)C)C1 [Compound 45, dimethyl ((2S,2′S)-((3S,3′S,5S,5′S)-((5,10-dihydrochromeno[5,4,3-cde]chromene-2,7-diyl)bis(4-chloro-1H-imidazole-5,2-diyl))bis(3-(methoxymethyl)pyrrolidine-5,1-diyl))bis(3-methyl-1-oxobutane-1,2-diyl))dicarbamate] | 7.71 |
| COC(=O)N[C@H](C(=O)N1[C@H](c2nc(Cl)c(-c3cc4c5c(c3)OCc3cc(-c6[nH]c([C@@H]7C[C@@H]8CCCC[C@@H]8N7C(=O)[C@@H](NC(=O)OC)C(C)(C)C(F)(F)F)nc6Cl)cc(c3-5)OC4)[nH]2)C[C@@H]2CCCC[C@@H]21)C(C)(C)C(F)(F)F [Compound 38, dimethyl ((2S,2′S)-((2S,2′S,3aS,3a′S,7aS,7a′S)-((5,10-dihydrochromeno[5,4,3-cde]chromene-2,7-diyl)bis(4-chloro-1H-imidazole-5,2-diyl))bis(octahydro-1H-indole-2,1-diyl))bis(4,4,4-trifluoro-3,3-dimethyl-1-oxobutane-1,2-diyl))dicarbamate] | 7.59 |
| COC(=O)N[C@H](C(=O)N1CC2(CC2)C[C@H]1c1nc(Cl)c(-c2cc3c4c(c2)OCc2cc(-c5[nH]c([C@@H]6CC7(CC7)CN6C(=O)[C@@H](NC(=O)OC)C(C)(C)C(F)(F)F)nc5C(C)C)cc(c2-4)OC3)[nH]1)C(C)(C)C(F)(F)F [Compound 85, methyl ((S)-1-((S)-6-(5-(7-(4-chloro-2-((S)-5-((S)-4,4,4-trifluoro-2-((methoxycarbonyl)amino)-3,3-dimethylbutanoyl)-5-azaspiro[2.4]heptan-6-yl)-1H-imidazol-5-yl)-5,10-dihydrochromeno[5,4,3-cde]chromen-2-yl)-4-isopropyl-1H-imidazol-2-yl)-5-azaspiro[2.4]heptan-5-yl)-4,4,4-trifluoro-3,3-dimethyl-1-oxobutan-2-yl)carbamate] | 8.85 |
| COC(=O)N[C@H](C(=O)N1[C@H](c2nc(Cl)c(-c3cc4c5c(c3)OCc3cc(-c6[nH]c([C@@H]7C[C@@H]8CCCC[C@@H]8N7C(=O)[C@@H](NC(=O)OC)C(C)C)nc6Cl)cc(c3-5)OC4)[nH]2)C[C@@H]2CCCC[C@@H]21)C(C)C [Compound 37, dimethyl ((2S,2′S)-((2S,2′S,3aS,3a′S,7aS,7a′S)-((5,10-dihydrochromeno[5,4,3-cde]chromene-2,7-diyl)bis(4-chloro-1H-imidazole-5,2-diyl))bis(octahydro-1H-indole-2,1-diyl))bis(3-methyl-1-oxobutane-1,2-diyl))dicarbamate] | 8.24 |
| COC(=O)N[C@H](C(=O)N1CCC[C@H]1c1nc(C(C)C)c(-c2cc3c4c(c2)OCc2cc(-c5[nH]c([C@@H]6CCCN6C(=O)[C@@H](NC(=O)OC)C(C)C)nc5C(C)C)cc(c2-4)OC3)[nH]1)C(C)C [Compound 19, dimethyl ((2S,2′S)-((2S,2′S)-((5,10-dihydrochromeno[5,4,3-cde]chromene-2,7-diyl)bis(4-isopropyl-1H-imidazole-5,2-diyl))bis(pyrrolidine-2,1-diyl))bis(3-methyl-1-oxobutane-1,2-diyl))dicarbamate] | 7.80 |
| COC(=O)N[C@H](C(=O)N1C[C@@H](C)C[C@H]1c1nc(Cl)c(-c2cc3c4c(c2)OCc2cc(-c5[nH]c([C@@H]6C[C@H](C)CN6C(=O)[C@@H](NC(=O)OC)C(C)C)nc5Br)cc(c2-4)OC3)[nH]1)C(C)C [Compound 69, methyl ((S)-1-((2S,4S)-2-(4-bromo-5-(7-(4-chloro-2-((2S,4S)-1-((methoxycarbonyl)-L-valyl)-4-methylpyrrolidin-2-yl)-1H-imidazol-5-yl)-5,10-dihydrochromeno[5,4,3-cde]chromen-2-yl)-1H-imidazol-2-yl)-4-methylpyrrolidin-1-yl)-3-methyl-1-oxobutan-2-yl)carbamate] | 7.94 |
| CC[C@H](C)[C@H](NC(=O)OC)C(=O)N1C[C@H](F)C[C@H]1c1nc(Cl)c(-c2cc3c4c(c2)OCc2cc(-c5[nH]c([C@@H]6C[C@@H](F)CN6C(=O)[C@@H](NC(=O)OC)[C@@H](C)CC)nc5Cl)cc(c2-4)OC3)[nH]1 [Compound 54, dimethyl ((2S,2′S,3S,3′S)-((3R,3′R,5S,5′S)-((5,10-dihydrochromeno[5,4,3-cde]chromene-2,7-diyl)bis(4-chloro-1H-imidazole-5,2-diyl))bis(3-fluoropyrrolidine-5,1-diyl))bis(3-methyl-1-oxopentane-1,2-diyl))dicarbamate] | 8.10 |
| COC(=O)N[C@H](C(=O)N1C[C@H](C)C[C@H]1c1nc(Cl)c(-c2cc3c4c(c2)OCc2cc(-c5[nH]c([C@@H]6C[C@@H](C)CN6C(=O)[C@@H](NC(=O)OC)C(C)C)nc5Cl)cc(c2-4)OC3)[nH]1)C(C)C [Compound 1, dimethyl ((2S,2′S)-((3R,3′R,5S,5′S)-((5,10-dihydrochromeno[5,4,3-cde]chromene-2,7-diyl)bis(4-chloro-1H-imidazole-5,2-diyl))bis(3-methylpyrrolidine-5,1-diyl))bis(3-methyl-1-oxobutane-1,2-diyl))dicarbamate] | 8.38 |
| CC[C@H](C)[C@H](NC(=O)OC)C(=O)N1[C@@H](C)CC[C@H]1c1nc(Cl)c(-c2cc3c4c(c2)OCc2cc(-c5[nH]c([C@@H]6CC[C@H](C)N6C(=O)[C@@H](NC(=O)OC)[C@@H](C)CC)nc5Cl)cc(c2-4)OC3)[nH]1 [Compound 28, dimethyl ((2S,2′S,3S,3′S)-((2S,2′S,5S,5′S)-((5,10-dihydrochromeno[5,4,3-cde]chromene-2,7-diyl)bis(4-chloro-1H-imidazole-5,2-diyl))bis(2-methylpyrrolidine-5,1-diyl))bis(3-methyl-1-oxopentane-1,2-diyl))dicarbamate] | 8.80 |
| COC(=O)N[C@H](C(=O)N1[C@H](C)CC[C@H]1c1nc(Cl)c(-c2cc3c4c(c2)OCc2cc(-c5[nH]c([C@@H]6CC[C@@H](C)N6C(=O)[C@@H](NC(=O)OC)C(C)C)nc5Cl)cc(c2-4)OC3)[nH]1)C(C)C [Compound 62, dimethyl ((2S,2′S)-((2R,2′R,5S,5′S)-((5,10-dihydrochromeno[5,4,3-cde]chromene-2,7-diyl)bis(4-chloro-1H-imidazole-5,2-diyl))bis(2-methylpyrrolidine-5,1-diyl))bis(3-methyl-1-oxobutane-1,2-diyl))dicarbamate] | 7.75 |
